Measured values taken from patent US9434727B2, “Substituted 4-phenylpiperidines, their preparation and use” (THE TRUSTEES OF COLUMBIA UNIVERSITY IN THE CITY OF NEW YORK, priority 2014, dated 2016).

Columns and labels:
RBP4 = RBP4 (Homo sapiens (Human), UniProt P02753); assay: Scintillation proximity (SPA) RBP4 binding assay; details: 10 nM 3H-Retinol, 50 nM biotinylated RBP4
Description: Scintillation Proximity RBP4 Binding Assay
Untagged human RBP4 purified from urine of tubular proteinuria patients was purchased from Fitzgerald Industries International. It was biotinylated using the EZ-Link Sulfo-NHS-LC-Biotinylation kit from Pierce following the manufacturer's recommendations. Binding experiments were performed in 96-well plates (OptiPlate, PerkinElmer) in a final assay volume of 100 μl per well in SPA buffer (IX PBS, pH 7.4, 1 mM EDTA, 0.1% BSA, 0.5% CHAPS). The reaction mix contained 10 nM ^3H-Retinol (48.7 Ci/mmol; PerkinElmer), 0.3 mg/well Streptavidin-PVT beads, 50 nM biotinylated RBP4 and a test compound. Nonspecific binding was determined in the presence of 20 μM of unlabeled retinol. The reaction mix was assembled in the dark under dim red light. The plates were sealed with clear tape (TopSeal-A: 96-well microplate, PerkinElmer), wrapped in the aluminum foil, and allowed to equilibrate 6 hours at room temperature followed by overnight incubation at +4° C. Radiocounts were measured using a TopCount NXT counter (Packard Instrument Company).

RBP4-TTR interaction = RBP4-TTR interaction (Homo sapiens (Human), UniProt P02753); assay: TR-FRET (HTRF) assay for retinol-induced RBP4-TTR interaction; assay type: biochemical; details: in the presence of 1 μM retinol; read-out: HTRF assay for antagonists of RBP4-TTR interaction: IC50
Excerpt: TR-FRET assay for retinol-induced RBP4-TTR interaction Binding of a desired RBP4 antagonist displaces retinol and induces hindrance for RBP4-TTR interaction resulting in the decreased FRET signal (FIG. 7). Bacterially expressed MBP-RBP4 and untagged TTR were used in this assay. […] Following cell lysis, recombinant RBP4 was purified from the soluble fraction using the ACTA FPLC system (GE Healthcare) equipped with the 5-ml the MBP Trap HP column. Human untagged TTR was purchased from Calbiochem. Untagged TTR was labeled directly with Eu^3+ Cryptate-NHS using the HTRF Cryptate Labeling kit from CisBio following the manufacturer's recommendations. HTRF assay was performed in white low volume 384 well plates (Greiner-Bio) in a final assay volume of 16 μl per well. The reaction buffer contained 10 mM Tris-HCl pH 7.5, 1 mM DTT, 0.05% NP-40, 0.05% Prionex, 6% glycerol, and 400 mM KF. […] Titration of test compounds in this assay was conducted in the presence of 1 μM retinol. All reactions were assembled in the dark under dim red light and incubated overnight at +4° C. wrapped in aluminum foil. TR-FRET signal was measured in the SpectraMax M5e Multimode Plate Reader (Molecular Device). […] The TR-FRET signal was expressed as the ratio of fluorescence intensity: Flu665/Flu620×10,000.

Question: With `CC(=O)N1CCc2c(C(=O)N3CCC(c4cccc(F)c4C(F)(F)F)CC3)n[nH]c2C1` [Compound 63, 1-(3-(4-(3-Fluoro-2-(trifluoromethyl)phenyl)piperidine-1-carbonyl)-4,5-dihydro-1H-pyrazolo[3,4-c]pyridin-6(7H)-yl)ethanone] as the compound, how does the IC50 (RBP4) read?
Answer: Its IC50 is 4.46 nM.

Question: What about the IC50 (RBP4-TTR interaction) of the same compound?
Answer: The IC50 was 16 nM.

Question: With `CS(=O)(=O)N1CCc2[nH]nc(C(=O)N3CCC(c4cccc(F)c4C(F)(F)F)CC3)c2C1` [Compound 64, (4-(3-Fluoro-2-(trifluoromethyl)phenyl)piperidin-1-yl)(5-(methylsulfonyl)-4,5,6,7-tetrahydro-1H-pyrazolo[4,3-c]pyridin-3-yl)methanone] as the compound, how does the IC50 (RBP4) read?
Answer: Its IC50 is 5.36 nM.

Question: And the IC50 (RBP4-TTR interaction)?
Answer: The IC50 was 20.6 nM.

Question: `N#CN1CCc2[nH]nc(C(=O)N3CCC(c4cccc(F)c4C(F)(F)F)CC3)c2C1` [Compound 70, 3-(4-(3-Fluoro-2-(trifluoromethyl)phenyl)piperidine-1-carbonyl)-6,7-dihydro-1H-pyrazolo[4,3-c]pyridine-5(4H)-carbonitrile] was tested. Which IC50 (RBP4-TTR interaction) did it give?
Answer: Its IC50 is 37.5 nM.

Question: `O=C(c1n[nH]c2c1CN(CC(F)(F)F)CC2)N1CCC(c2cccc(F)c2C(F)(F)F)CC1` [Compound 71, (4-(3-Fluoro-2-(trifluoromethyl)phenyl)piperidin-1-yl)(5-(2,2,2-trifluoroethyl)-4,5,6,7-tetrahydro-1H-pyrazolo[4,3-c]pyridin-3-yl)methanone] was tested. Which IC50 (RBP4) did it give?
Answer: Its IC50 is 17.1 nM.

Question: What about the IC50 (RBP4-TTR interaction) of the same compound?
Answer: Its IC50 is 52.6 nM.

Question: For `O=C(c1n[nH]c2c1CN(C1COC1)CC2)N1CCC(c2cccc(F)c2C(F)(F)F)CC1` [Compound 74], which IC50 (RBP4) is on record?
Answer: Its IC50 is 11.6 nM.

Question: And the IC50 (RBP4-TTR interaction)?
Answer: Its IC50 is 28.3 nM.

Question: How did the IC50 (RBP4) turn out when `CCN1CCc2c(C(=O)N3CCC(c4cccc(F)c4C(F)(F)F)CC3)n[nH]c2C1` [Compound 75, (6-Ethyl-4,5,6,7-tetrahydro-1H-pyrazolo[3,4-c]pyridin-3-yl)(4-(3-fluoro-2-(trifluormethyl)phenyl)piperidin-1-yl)methanone] was run?
Answer: Its IC50 is 6.95 nM.

Question: What about the IC50 (RBP4-TTR interaction) of the same compound?
Answer: The IC50 was 34 nM.

Question: Which results are given for `O=C(c1n[nH]c2c1CCN(CCC(F)(F)F)C2)N1CCC(c2cccc(F)c2C(F)(F)F)CC1` [Compound 76, (4-(3-Fluoro-2-(trifluoromethyl)phenyl)piperidin-1-yl)(6-(3,3,3-trifluoropropyl)-4,5,6,7-tetrahydro-1H-pyrazolo[3,4-c]pyridin-3-yl)methanone]?
Answer: IC50 (RBP4): 7.4 nM; IC50 (RBP4-TTR interaction): 19.7 nM

Question: For `N#CN1CCc2c(C(=O)N3CCC(c4cccc(F)c4C(F)(F)F)CC3)n[nH]c2C1` [Compound 78, 3-(4-(3-Fluoro-2-(trifluoromethyl)phenyl)piperidine-1-carbonyl)-4,5-dihydro-1H-pyrazolo[3,4-c]pyridine-6(7H)-carbonitrile], which IC50 (RBP4) is on record?
Answer: Its IC50 is 9.5 nM.

Question: What does the source list for `CCC(=O)N1Cc2[nH]nc(C(=O)N3CCC(c4ccc(F)c(F)c4C(F)(F)F)CC3)c2C1` [Compound 84, 1-(3-(4-(3,4-difluoro-2-(trifluoromethyl)phenyl)piperidine-1-carbonyl)pyrrolo[3,4-c]pyrazol-5(1H,4H,6H)-yl)propan-1-one]?
Answer: IC50 (RBP4): 16.3 nM; IC50 (RBP4-TTR interaction): 14.7 nM

Question: What does the source list for `CC(C)C(=O)N1Cc2[nH]nc(C(=O)N3CCC(c4ccc(F)c(F)c4C(F)(F)F)CC3)c2C1` [Compound 85, 1-(3-(4-(3,4-difluoro-2-(trifluoromethyl)phenyl)piperidine-1-carbonyl)pyrrolo[3,4-c]pyrazol 5(1H,4H,6H)-yl)-2-methylpropan-1-one]?
Answer: IC50 (RBP4): 17.9 nM; IC50 (RBP4-TTR interaction): 22.4 nM

Question: What does the source list for `CC(C)CC(=O)N1Cc2[nH]nc(C(=O)N3CCC(c4ccc(F)c(F)c4C(F)(F)F)CC3)c2C1` [Compound 86, 1-(3-(4-(3,4-difluoro-2-(trifluoromethyl)phenyl)piperidine-1-carbonyl)pyrrolo[3,4-c]pyrazol-5(1H, 4H, 6H)-yl)-3-methylbutan-1-one]?
Answer: IC50 (RBP4): 19.3 nM; IC50 (RBP4-TTR interaction): 27.8 nM

Question: For `O=C(c1n[nH]c2c1CN(C1COC1)CC2)N1CCC(c2ccc(F)c(F)c2C(F)(F)F)CC1` [Compound 89, (4-(3,4-difluoro-2-(trifluoromethyl)phenyl)piperidin-1-yl)(5-(oxetan-3-yl)-4,5,6,7-tetrahydro-1H-pyrazolo[4,3-c]pyridin-3-yl)methanone], which IC50 (RBP4) is on record?
Answer: The IC50 was 8.84 nM.

Question: What about the IC50 (RBP4-TTR interaction) of the same compound?
Answer: The IC50 was 33 nM.

Question: For `CC(C)(C)CN1CCc2[nH]nc(C(=O)N3CCC(c4ccc(F)c(F)c4C(F)(F)F)CC3)c2C1` [Compound 90, (4-(3,4-difluoro-2-(trifluoromethyl)phenyl)piperidin-1-yl)(5-neopentyl-4,5,6,7-tetrahydro-1H-pyrazolo[4,3-c]pyridin-3-yl)methanone methanone], which IC50 (RBP4) is on record?
Answer: The IC50 was 14.4 nM.

Question: And the IC50 (RBP4-TTR interaction)?
Answer: Its IC50 is 42.9 nM.

Question: `COC(=O)N1CCc2[nH]nc(C(=O)N3CCC(c4ccc(F)c(F)c4C(F)(F)F)CC3)c2C1` [Compound 91, methyl 3-(4-(3,4-difluoro-2-(trifluoromethyl)phenyl)piperidine-1-carbonyl)-6,7-dihydro-1H-pyrazolo[4,3-c]pyridine-5(4H)-carboxylate] was tested. Which IC50 (RBP4) did it give?
Answer: Its IC50 is 7.06 nM.

Question: And the IC50 (RBP4-TTR interaction)?
Answer: The IC50 was 57.7 nM.

Question: What does the source list for `CNC(=O)N1CCc2[nH]nc(C(=O)N3CCC(c4ccc(F)c(F)c4C(F)(F)F)CC3)c2C1` [Compound 92, 3-(4-(3,4-difluoro-2-(trifluoromethyl)phenyl)piperidine-1-carbonyl)-N-methyl-6,7-dihydro-1H-pyrazolo[4,3-c]pyridine-5(4H)-carboxamide]?
Answer: IC50 (RBP4): 10.2 nM; IC50 (RBP4-TTR interaction): 76.6 nM

Question: With `O=C(c1n[nH]c2c1CN(CCC(F)(F)F)CC2)N1CCC(c2ccc(F)c(F)c2C(F)(F)F)CC1` [Compound 93, (4-(3,4-difluoro-2-(trifluoromethyl)phenyl)piperidin-1-yl)(5-(3,3,3-trifluoropropyl)-4,5,6,7-tetrahydro-1H-pyrazolo[4,3-c]pyridin-3-yl)methanone] as the compound, how does the IC50 (RBP4) read?
Answer: Its IC50 is 8 nM.

Question: And the IC50 (RBP4-TTR interaction)?
Answer: Its IC50 is 33.6 nM.

Question: Which results are given for `COCCN1CCc2[nH]nc(C(=O)N3CCC(c4ccc(F)c(F)c4C(F)(F)F)CC3)c2C1` [Compound 94, (4-(3,4-difluoro-2-(trifluoromethyl)phenyl)piperidin-1-yl)(5-(2-methoxyethyl)-4,5,6,7-tetrahydro-1H-pyrazolo[4,3-c]pyridin-3-yl)methanone]?
Answer: IC50 (RBP4): 6.96 nM; IC50 (RBP4-TTR interaction): 49.9 nM

Question: How did the IC50 (RBP4) turn out when `N#CN1CCc2[nH]nc(C(=O)N3CCC(c4ccc(F)c(F)c4C(F)(F)F)CC3)c2C1` [Compound 95, 3-(4-(3,4-difluoro-2-(trifluoromethyl)phenyl)piperidine-1-carbonyl)-6,7-dihydro-1H-pyrazolo[4,3-c]pyridine-5(4H)-carbonitrile] was run?
Answer: The IC50 was 7.78 nM.

Question: What about the IC50 (RBP4-TTR interaction) of the same compound?
Answer: The IC50 was 27.8 nM.

Question: How did the IC50 (RBP4) turn out when `CCN1Cc2[nH]nc(C(=O)N3CCC(c4ccc(F)c(F)c4C(F)(F)F)CC3)c2C1` [Compound 96, (4-(3,4-difluoro-2(trifluoromethyl)phenyl)piperidin-1-yl)(5-ethyl-1,4,5,6-tetrahydropyrrolo[3,4-c]pyrazol-3-yl)methanone] was run?
Answer: Its IC50 is 12.7 nM.

Question: What about the IC50 (RBP4-TTR interaction) of the same compound?
Answer: Its IC50 is 26.5 nM.

Question: `O=C(c1n[nH]c2c1CN(C1COC1)C2)N1CCC(c2ccc(F)c(F)c2C(F)(F)F)CC1` [Compound 98, (4-(3,4-difluoro-2-(trifluoromethyl)phenyl)piperidin-1-yl)(5-(oxetan-3-yl)-1,4,5,6-tetrahydropyrrolo[3,4-c]pyrazol-3-yl) methanone] was tested. Which IC50 (RBP4) did it give?
Answer: The IC50 was 11.8 nM.

Question: What about the IC50 (RBP4-TTR interaction) of the same compound?
Answer: Its IC50 is 74.1 nM.

Question: For `CNC(=O)N1Cc2[nH]nc(C(=O)N3CCC(c4ccc(F)c(F)c4C(F)(F)F)CC3)c2C1` [Compound 100, 3-(4-(3,4-difluoro-2-(trifluoromethyl)phenyl)piperidine-1-carbonyl)-N-methyl-4,6-dihydropyrrolo[3,4-c]pyrazole-5(1H)-carboxamide], which IC50 (RBP4) is on record?
Answer: The IC50 was 19.6 nM.

Question: What about the IC50 (RBP4-TTR interaction) of the same compound?
Answer: Its IC50 is 30.3 nM.

Question: How did the IC50 (RBP4) turn out when `COC(=O)N1Cc2[nH]nc(C(=O)N3CCC(c4ccc(F)c(F)c4C(F)(F)F)CC3)c2C1` [Compound 101, methyl 3-(4-(3,4-difluoro-2-(trifluoromethyl)phenyl)piperidine-1-carbonyl)-4,6-dihydropyrrolo[3,4-c]pyrazole-5(1H)-carboxylate] was run?
Answer: Its IC50 is 7.44 nM.

Question: And the IC50 (RBP4-TTR interaction)?
Answer: Its IC50 is 14.1 nM.

Question: How did the IC50 (RBP4) turn out when `N#CN1CCc2c(C(=O)N3CCC(c4ccc(F)c(F)c4C(F)(F)F)CC3)n[nH]c2C1` [Compound 120, 3-(4-(3,4-Difluoro-2-(trifluoromethyl)phenyl)piperidine-1-carbonyl)-1,4,5,7-tetrahydro-6H-pyrazolo[3,4-c]pyridine-6-carbonitrile] was run?
Answer: The IC50 was 3.45 nM.

Question: For `O=C(c1n[nH]c2c1CN(C(=O)N1CCCCC1)C2)N1CCC(c2ccc(F)c(F)c2C(F)(F)F)CC1` [Compound 128, (4-(3,4-Difluoro-2-(trifluoromethyl)phenyl)piperidin-1-yl)(5-(piperidine-1-carbonyl)-1,4,5,6 tetrahydropyrrolo[3,4-c]pyrazol-3-yl)methanone], which IC50 (RBP4-TTR interaction) is on record?
Answer: The IC50 was 32.4 nM.
